Measurements published in patent US20040132707A1, “Catecholate beta-lactam conjugates, method for producing the same and the use thereof” (Gruenenthal GmbH, priority 2001, published 2004).
In brackets after ≈: the same amount, converted by molar mass.

Assays:
Assay in all cases: Microdilution MIC assay (NCCLS M7-A)
Type in all cases: cell-based
[1] = tested on: Serratia marcescens SG 621; conditions: strain SG621; for MIC: Serratia marcescens, read-out: MIC Serratia marc. SG621
Experimental: (§1) The antibacterial activity was tested by a microdilution assay according to National Committee for Clinical Laboratory Standards, 1998, Methods for dilution antimicrobial susceptibility tests for bacteria that grow aerobically, Approved standard M7-A, NCCLS, Villanova, Pa.
(§2) The minimal inhibition concentrations (MICs) were determined for the following bacterial strains: The Gram-negative strains Pseudomonas aeruginosa SG 137, ATCC 27853, Escherichia coli ATCC 25922, Klebsiella pneumoniae ATCC 10031, Stenotrophomonas maltophilia GN 12873, Serratia marcescens SG 621 as well as for the Gram-positive strain Staphylococcus aureus SG 511.

[2] = tested on: Pseudomonas aeruginosa SG 137; conditions: strain SG137; for MIC: Pseudomonas aeruginosa
Experimental: as §1, §2

[3] = tested on: Pseudomonas aeruginosa ATCC 27853; conditions: strain ATCC 27853; for MIC: Pseudomonas aeruginosa, ATCC27853
Experimental: as §1, §2

[4] = tested on: Escherichia coli ATCC 25922; conditions: strain ATCC 25922; for MIC: Escherichia coli, ATCC25922, read-out: MIC E. coli ATCC 25922
Experimental: as §1, §2

[5] = tested on: Stenotrophomonas maltophilia GN 12873; conditions: strain GN12873; for MIC: Stenotrophomonas maltophilia, read-out: MIC Stenotroph. maltoph. GN12873
Experimental: as §1, §2

[6] = tested on: Staphylococcus aureus SG 511; conditions: strain SG511; for MIC: Staphylococcus aureus, read-out: MIC Staph. aureus SG511
Experimental: as §1, §2

[7] = tested on: Klebsiella pneumoniae ATCC 10031; conditions: strain ATCC10031; for MIC: Klebsiella pneumoniae
Experimental: as §1, §2

SMILES | MIC Serratia marc. SG621 [1] [µg/mL] | MIC Pseudomonas aeruginosa SG137 [2] [µg/mL] | MIC Pseudomonas aeruginosa ATCC 27853 [3] [µg/mL] | MIC E. coli ATCC 25922 [4] [µg/mL] | MIC Stenotroph. maltoph. GN12873 [5] [µg/mL] | MIC Staph. aureus SG511 [6] [µg/mL] | MIC Klebsiella pneumoniae ATCC10031 [7] [µg/mL] | MIC [1] [µg/mL] | MIC [2] [µg/mL] | MIC [3] [µg/mL] | MIC [4] [µg/mL] | MIC [5] [µg/mL] | MIC [6] [µg/mL] | MIC [7] [µg/mL]
CC(=O)Oc1cccc(C(=O)NCCCCN(Cc2ccc(OCC(=O)NC(C(=O)NC3C(=O)N4C3SC(C)(C)C4C(=O)O)c3ccccc3)cc2)C(=O)c2cccc(OC(C)=O)c2OC(C)=O)c1OC(C)=O (stereo not shown) [Example 17, N-{4-[2,7-Bis-(2,3-diacetoxybenzoyl)-2,7-diaza-heptyl]-phenoxyacetyl}-ampicillin] | 6.25 (≈ 6.1 µM) | 0.2 (≈ 0.195 µM) | 6.25 (≈ 6.1 µM) | 0.78 (≈ 0.762 µM) | 0.2 (≈ 0.195 µM) | 1.56 (≈ 1.52 µM) | <0.05 |  |  |  |  |  |  | 
COC(=O)Oc1cccc(C(=O)N(C)CCCN(Cc2ccc(C(=O)NC(C(=O)NC3C(=O)N4C3SC(C)(C)C4C(=O)O)c3ccccc3)cc2)C(=O)c2cccc(OC(=O)OC)c2OC(=O)OC)c1OC(=O)OC (stereo not shown) [Example 16, N-{4-[2,6-bis-(2,3-di-methoxycarbonyloxybenzoyl)-2,6-diaza-heptyl]-benzoyl}-ampicillin] | 1.56 (≈ 1.47 µM) | <0.05 | 0.78 (≈ 0.737 µM) | 0.4 (≈ 0.378 µM) | <0.05 | 1.56 (≈ 1.47 µM) | 0.1 (≈ 0.0945 µM) |  |  |  |  |  |  | 
COC(=O)Oc1cccc(C(=O)N(C)CCCN(Cc2ccccc2C(=O)N[C@@H](C(=O)N[C@@H]2C(=O)N3[C@@H]2SC(C)(C)[C@@H]3C(=O)O)c2ccccc2)C(=O)c2cccc(OC(=O)OC)c2OC(=O)OC)c1OC(=O)OC [Example 22, N-{2-[2,6-Bis-(2,3-di-methoxycarbonyloxy-benzoyl)-2,6-diaza-heptyl]-benzoyl}-ampicillin] | 0.78 (≈ 0.737 µM) | 0.2 (≈ 0.189 µM) | 0.4 (≈ 0.378 µM) | 1.56 (≈ 1.47 µM) | <0.05 | 6.25 (≈ 5.91 µM) | 0.4 (≈ 0.378 µM) |  |  |  |  |  |  | 
COC(=O)Oc1cccc(C(=O)NCC(O)CN(CC(=O)NC(C(=O)NC2C(=O)N3C2SC(C)(C)C3C(=O)O)c2ccccc2)C(=O)c2cccc(OC(=O)OC)c2OC(=O)OC)c1OC(=O)OC (stereo not shown) [Example 14, N-[3,7-Bis-(2,3-dimethoxycarbonyloxybenzoyl)-3,7-diaza-5-hydroxy-heptanoyl]-ampicillin] | 1.56 (≈ 1.59 µM) | 0.1 (≈ 0.102 µM) | 1.56 (≈ 1.59 µM) | 6.25 (≈ 6.35 µM) | 0.4 (≈ 0.407 µM) | 0.4 (≈ 0.407 µM) | 0.2 (≈ 0.203 µM) |  |  |  |  |  |  | 
CC1(C)S[C@@H]2[C@H](NC(=O)[C@H](NC(=O)N3CCNC3=O)c3ccccc3)C(=O)N2[C@H]1C(=O)O [azlocillin, reference compound] |  |  |  |  |  |  |  | 50 (≈ 108 µM) | 6.25 (≈ 13.5 µM) | 6.25 (≈ 13.5 µM) | 6.25 (≈ 13.5 µM) | 25 (≈ 54.2 µM) | 0.4 (≈ 0.867 µM) | 6.25 (≈ 13.5 µM)
COC(=O)Oc1cc(Br)cc(C(=O)N(C)CCCN(CC(=O)NC(C(=O)NC2C(=O)N3C2SC(C)(C)C3C(=O)O)c2ccccc2)C(=O)c2cc(Br)cc(OC(=O)OC)c2OC(=O)OC)c1OC(=O)OC (stereo not shown) [Example 8, N-{3,7-Bis-[5-brom-2,3-di-(methoxycarbonyloxy)-benzoyl]-3,7-diaza-octanoyl}-ampicillin] | 0.02 (≈ 0.0175 µM) | <0.005 | 0.05 (≈ 0.0439 µM) | <0.005 | 0.02 (≈ 0.0175 µM) | 6.25 (≈ 5.48 µM) | <0.005 |  |  |  |  |  |  | 
COC(=O)Oc1cc(Cl)c(Cl)c(C(=O)N(C)CCCN(CC(=O)NC(C(=O)NC2C(=O)N3C2SC(C)(C)C3C(=O)O)c2ccccc2)C(=O)c2c(Cl)c(Cl)cc(OC(=O)OC)c2OC(=O)OC)c1OC(=O)OC (stereo not shown) [Example 12, N-{3,7-Bis-(2,3-dichlor-5,6-di-methoxycarbonyloxy-benzoyl)-3,7-diaza-octanoyl}-ampicillin] | 0.05 (≈ 0.0447 µM) | 0.05 (≈ 0.0447 µM) | 0.1 (≈ 0.0893 µM) | 0.02 (≈ 0.0179 µM) | 0.05 (≈ 0.0447 µM) | 3.12 (≈ 2.79 µM) | <0.005 |  |  |  |  |  |  | 
COC(=O)Oc1cccc(C(=O)N(C)CCCN(CC(=O)NC(C(=O)NC2C(=O)N3C2SC(C)(C)C3C(=O)O)c2ccccc2)C(=O)c2cccc(OC(=O)OC)c2OC(=O)OC)c1OC(=O)OC (stereo not shown) [Example 1, N-[3,7-Bis-(2,3-dimethoxycarbonyloxybenzoyl)-3,7-diaza-octanoyl]-ampicillin] | 0.078 (≈ 0.0794 µM) | 0.031 (≈ 0.0316 µM) | 0.031 (≈ 0.0316 µM) | 0.062 (≈ 0.0631 µM) | 0.062 (≈ 0.0631 µM) | 10 (≈ 10.2 µM) | 0.008 (≈ 0.00815 µM) |  |  |  |  |  |  | 
CC(=O)Oc1cccc(C(=O)NCCN(CC(=O)N[C@@H](C(=O)N[C@@H]2C(=O)N3[C@@H]2SC(C)(C)[C@@H]3C(=O)O)c2ccccc2)C(=O)c2cccc(OC(C)=O)c2OC(C)=O)c1OC(C)=O [Example 26, N-[3,6-Bis-(2,3-diacetoxybenzoyl)-3,6-diaza-hexanoyl]-ampicillin] | 0.78 (≈ 0.877 µM) | 0.4 (≈ 0.449 µM) | 0.78 (≈ 0.877 µM) | 0.78 (≈ 0.877 µM) | 0.78 (≈ 0.877 µM) | 3.12 (≈ 3.51 µM) | 0.1 (≈ 0.112 µM) |  |  |  |  |  |  | 
COC(=O)Oc1cc(Cl)cc(C(=O)N(C)CCCN(CC(=O)NC(C(=O)NC2C(=O)N3C2SC(C)(C)C3C(=O)O)c2ccccc2)C(=O)c2cc(Cl)cc(OC(=O)OC)c2OC(=O)OC)c1OC(=O)OC (stereo not shown) [Example 7, N-[3,7-Bis-(5-chlor-2,3-dimethoxycarbonyloxybenzoyl)-3,7-diaza-octanoyl]-ampicillin] | 0.02 (≈ 0.019 µM) | <0.005 | 0.1 (≈ 0.0952 µM) | 0.05 (≈ 0.0476 µM) | 0.02 (≈ 0.019 µM) | 12.5 (≈ 11.9 µM) | <0.005 |  |  |  |  |  |  | 
COC(=O)Oc1cccc(C(=O)N(CCN(CCn2c(=O)oc3c(OC(=O)OC)cccc3c2=O)CCn2c(=O)oc3c(OC(=O)OC)cccc3c2=O)CC(=O)NC(C(=O)NC2C(=O)N3C2SC(C)(C)C3C(=O)O)c2ccccc2)c1OC(=O)OC (stereo not shown) [Example 3, N-[6-Bis[2-(8-methoxycarbonyloxy-benzoxazin-2,4-dion-3-yl)-ethyl]-3-[2,3-di-(methoxycarbonyloxy)-benzoyl]-3,6-diaza-hexanoyl]-ampicillin] | 0.2 (≈ 0.163 µM) | 0.1 (≈ 0.0814 µM) | 0.78 (≈ 0.635 µM) | 0.2 (≈ 0.163 µM) | 0.4 (≈ 0.326 µM) | 12.5 (≈ 10.2 µM) | <0.05 |  |  |  |  |  |  | 
CC1(C)S[C@@H]2[C@H](NC(=O)[C@H](N)c3ccccc3)C(=O)N2[C@H]1C(=O)O [ampicillin, reference compound] |  |  |  |  |  |  |  | 25 (≈ 71.5 µM) | > 100 | > 100 | 6.25 (≈ 17.9 µM) | > 100 | 0.4 (≈ 1.14 µM) | 6.25 (≈ 17.9 µM)
CC(=O)Oc1cccc(C(=O)NCCN(CCNC(=O)c2cccc(OC(C)=O)c2OC(C)=O)CCN(Cc2ccc(C(=O)NC(C(=O)NC3C(=O)N4C3SC(C)(C)C4C(=O)O)c3ccccc3)cc2)C(=O)c2cccc(OC(C)=O)c2OC(C)=O)c1OC(C)=O (stereo not shown) [Example 15] | 0.4 (≈ 0.314 µM) | <0.05 | 0.2 (≈ 0.157 µM) | 0.78 (≈ 0.613 µM) | <0.05 | 0.78 (≈ 0.613 µM) | 0.1 (≈ 0.0786 µM) |  |  |  |  |  |  | 
